Results: patent US12691104B2, “Compositions containing nicotinamide and vitamin B6 and methods of using such compositions for treating sarcopenia and frailty” (SOCIETE DES PRODUITS NESTLE S.A., priority 2020, dated 2026)

Tested on: Human primary myoblasts
Assay: Myogenic amplification and commitment of muscle stem cells (Pax7/MyoD staining, image quantification)
Assay type: cell-based
Settings: donors 1 and 2 pooled, dose response, 96 hours, control DMSO 1%; for proportion of MyoD+ cells, fold change compared to the control condition: FIG. 1B/2B
Method: Human Skeletal Muscle Myoblasts were purchased from Lonza (https://bioscience.lonza.com). These cells were isolated from the upper arm or leg muscle tissue of normal donors and used after the second passage. Several donors were tested to ensure cell viability and purity before selecting the final donors, which are a person (refer thereafter as Donor 1), a person (refer thereafter as Donor 2) and a person (refer thereafter as Donor 3). Human primary myoblasts were seeded in 384 well plates at a density of 1′000 cells per well in skeletal muscle growth medium (SKM-M, AMSbio). For treatment, compounds were directly added to the myoblast cultures 16 hours after initial plating. All cultures were then grown for 96 hours. Cells were stained for Pax7 and MyoD expression using antibodies directed against Pax7 and MyoD and counterstained with Hoechst 33342 to visualize cell nuclei. Pax7+ cells are defined as cells that express Pax7 regardless of MyoD expression. […] Image acquisition was performed using the ImageXpress (Molecular Devices) platform. Custom module analysis based on Multi-Wavelength Cell Scoring of the MetaXpress software was used for quantification. *, **, ***, **** indicates difference from the control, One-way ANOVA, with p<0.05, p<0.01, p<0.001, p<0.0001, respectively. Data are presented as Mean+/— SEM. Human primary myoblasts from different donors (donor 1, donor 2 or donor 3) were seeded in 384 well plates at a density of 1′000 cells per well in skeletal muscle growth medium (SKM-M, AMSbio). For treatment, compounds were directly added to the myoblast cultures 16 hours after initial plating. All cultures were then grown for 96 hours. Cells were stained for Pax7 and MyoD expression using antibodies directed against Pax7 and MyoD and counterstained with Hoechst 33342 to visualize cell nuclei. Pax7+ cells are defined as cells that express Pax7 regardless of MyoD expression. […] Custom module analysis based on Multi-Wavelength Cell Scoring of the MetaXpress software was used for quantification. […]

| Structure (SMILES) | proportion of Pax7+ cells, fold change compared to the control condition (FIG. 1A/2A) | proportion of MyoD+ cells, fold change compared to the control condition |
| --- | --- | --- |
| NC(=O)c1cccnc1 [Nicotinamide] | increasing the proportion of both amplifying (Pax7+) and differentiating (MyoD+) cells in a dose dependent manner | increasing the proportion of both amplifying (Pax7+) and differentiating (MyoD+) cells in a dose dependent manner |
| Cc1ncc(CO)c(CO)c1O [Pyridoxine] |  | increasing the proportion of differentiating (MyoD+) cells in a dose dependent manner |
